We go through three compounds from US20160120881A1, “USE OF BUFODIENOLIDES IN DIAGNOSING AND TREATING ESSENTIAL HYPERTENSION” (priority 2014, published 2016).

For data set [1], the system named is severe PPH in rats. To be noted: cited from earlier work.
For data set [2] the following is noted: two phase I human studies, dosages calculated to have beneficial effects on human PPH (Sidharta et al.); cited from earlier work.
Data set [3] deals with volume expansion induced hypertensive rats. In words: Systolic blood pressure in volume expansion induced hypertensive rats (saline infusion, NDS). Type of data set: in vivo, rat. Particulars: NDS rats given resibufogenin (NDSR) vs NDS; FIG. 1. The source says:
(§1) FIG. 1. Mean systolic blood pressure (BP) values in sham (SHM) animals, angiotensin-infused rats (ANG), angiotensin infused animals given resibufogenin (ANGR), normal rats rendered hypertensive by the infusion of saline (volume expansion induced hypertensive rats)(NDS), NDS rats given resibufogenin (NDSR).
(§2) This compound differs from MBG only in the absence of a hydroxyl group in the beta-5 position of the molecule. […] Current therapy of volume expansion hypertension involves the administration of a diuretic. RBG can be considered in place of the diuretic as the therapy of choice of volume expansion-mediated hypertension or can be utilized in combination with the diuretic so that smaller dosages of each agent could be utilized. The latter strategy can result in fewer side effects from either drug.

Data set [4] has as its system angiotensin-infused rats. Kind of data set: Systolic blood pressure in angiotensin-infused rats (ANG). The format is in vivo, rat. Particulars: angiotensin infused animals given resibufogenin (ANGR) vs ANG; FIG. 1.
Source text: as §1, §2

For data set [5], the system named is rodent brain contusion model. Kind of data set: Rodent brain contusion model. The format is in vivo. To be noted: given 1 hour after the insult. The source says: (§3) MBG is elevated in other syndromes such as preeclampsia and traumatic brain injury. It has been shown that the administration of the antagonist of MBG, resibufagenin (RBG) is therapeutically effective. […] RBG antagonizes MBG activity and may be an effective treatment for hypertension, ARDS, traumatic brain injury, and preeclampsia. Certain embodiments are directed to treating a hypertensive patient having elevated levels of MBG by administering an MBG antagonist or anti-MBG agent. In certain aspects the anti-MBG agent is resibufagenin (RBG).

In data set [6] the test system is preeclampsia in animal models. In words: Preeclampsia animal models. Type of data set: in vivo.
Source text: as §3

Data set [7] has as its system volume expansion induced hypertensive rats. To be noted: experimental animals, volume expansion-mediated hypertension (Danchuk et al. 2008); cited from earlier work.
Data set [8] deals with angiotensin-infused rats. To be noted: animals subjected to angiotensin excess (Danchuk et al. 2008); cited from earlier work.
The conditions of data set [9]: in vitro (Fedorova et al. 1997; Lopatin et al. 1999); cited from earlier work.

Take `CCCNS(=O)(=O)Nc1ncnc(OCCOc2ncc(Br)cn2)c1-c1ccc(Br)cc1` [macitentan]: the Pulmonary arterial hypertension result in data set [1] (severe PPH (Kunita-Takanezawa et al. 2014)) is given as “reversed severe pulmonary arterial hypertension”. In data set [1] (severe PPH), the Adverse effects result is “no adverse effects”, the Cardiac output result is listed as “preserved cardiac output”, the RV systolic pressure result is listed as “lowered RV systolic pressure” and the Right ventricular hypertrophy entry is recorded as “reversed right ventricular hypertrophy”. Also, the Adverse effects entry in [2] is given as “no adverse effects of the drug were noted”.

`C[C@]12CC[C@H](O)C[C@H]1CC[C@@H]1[C@@H]2CC[C@]2(C)[C@@H](c3ccc(=O)oc3)C[C@H]3O[C@]132` [resibufogenin, epoxy-3β-hydroxy-5β-bufa-20,22-dienolide]: the figures for the “Mean systolic blood pressure (BP)” value in data set [3] and in data set [4] were “reduced blood pressure only in the volume expanded animals” and “only in the volume expanded animals”, respectively. Besides, the Tissue injury entry in data set [5] is given as “amelioration of tissue injury”. In addition, in data set [6], the Preeclampsia result was “prevents preeclampsia”. For the same compound, the Blood pressure elevation result in [7] is listed as “resolves blood pressure elevations”. The Elevated blood pressure result in [8] is reported as “does not lower elevated blood pressure”.

Regarding `C[C@]12CC[C@H](O)C[C@@]1(O)CC[C@@H]1[C@@H]2CC[C@]2(C)[C@@H](c3ccc(=O)oc3)C[C@H]3O[C@]132` [marinobufagenin (MBG), marinobufagenin], the Vasoconstrictor action entry in data set [9] is “acts in vitro as a vasoconstrictor”.
